Test results from ChEMBL document CHEMBL1201862, “PubChem BioAssay data set” (2004).
Activity calls are given as the source filed them.

Assays:
[1] = biological target: T1, Apoptotic protease-activating factor 1 (Homo sapiens, UniProt O14727); assay type: functional
T1 sequence (O14727 whole entry): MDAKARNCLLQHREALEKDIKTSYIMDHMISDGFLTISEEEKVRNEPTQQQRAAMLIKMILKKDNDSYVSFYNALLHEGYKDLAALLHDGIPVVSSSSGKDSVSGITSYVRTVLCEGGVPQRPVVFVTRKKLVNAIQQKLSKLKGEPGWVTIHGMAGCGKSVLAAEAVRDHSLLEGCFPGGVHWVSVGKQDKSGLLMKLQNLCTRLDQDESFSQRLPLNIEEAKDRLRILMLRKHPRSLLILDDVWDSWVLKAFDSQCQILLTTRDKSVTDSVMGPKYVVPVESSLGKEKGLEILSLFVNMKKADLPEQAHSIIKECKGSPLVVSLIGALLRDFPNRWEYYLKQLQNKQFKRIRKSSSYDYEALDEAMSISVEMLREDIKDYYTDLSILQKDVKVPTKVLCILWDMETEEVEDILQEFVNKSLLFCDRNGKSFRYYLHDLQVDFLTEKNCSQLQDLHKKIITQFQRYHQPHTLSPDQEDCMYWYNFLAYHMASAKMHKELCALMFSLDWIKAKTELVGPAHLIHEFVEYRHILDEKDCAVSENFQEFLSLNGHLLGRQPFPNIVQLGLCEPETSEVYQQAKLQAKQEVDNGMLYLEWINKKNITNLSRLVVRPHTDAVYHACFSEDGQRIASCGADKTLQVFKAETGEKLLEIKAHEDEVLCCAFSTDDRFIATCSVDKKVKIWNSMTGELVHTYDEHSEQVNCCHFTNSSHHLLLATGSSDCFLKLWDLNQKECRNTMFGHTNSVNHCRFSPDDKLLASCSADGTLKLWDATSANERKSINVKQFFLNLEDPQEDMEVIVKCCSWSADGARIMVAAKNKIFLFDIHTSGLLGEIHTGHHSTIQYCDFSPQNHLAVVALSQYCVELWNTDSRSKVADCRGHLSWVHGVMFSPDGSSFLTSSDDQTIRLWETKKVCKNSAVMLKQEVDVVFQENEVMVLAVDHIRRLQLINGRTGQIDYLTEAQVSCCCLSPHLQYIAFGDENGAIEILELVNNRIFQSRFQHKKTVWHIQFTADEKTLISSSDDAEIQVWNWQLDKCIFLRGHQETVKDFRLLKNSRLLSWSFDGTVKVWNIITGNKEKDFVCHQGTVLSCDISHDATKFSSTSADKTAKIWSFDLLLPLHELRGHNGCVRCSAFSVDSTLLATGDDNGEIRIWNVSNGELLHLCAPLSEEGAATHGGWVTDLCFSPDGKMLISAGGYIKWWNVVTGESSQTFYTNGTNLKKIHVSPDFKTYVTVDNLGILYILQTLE

[2] = biological target: Proto-oncogene tyrosine-protein kinase Src (Homo sapiens, UniProt P12931); assay type: functional;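 note: SRC entry within a kinome-wide kinase profiling panel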
Chain of Proto-oncogene tyrosine-protein kinase Src (P12931 2-536 limits assumed): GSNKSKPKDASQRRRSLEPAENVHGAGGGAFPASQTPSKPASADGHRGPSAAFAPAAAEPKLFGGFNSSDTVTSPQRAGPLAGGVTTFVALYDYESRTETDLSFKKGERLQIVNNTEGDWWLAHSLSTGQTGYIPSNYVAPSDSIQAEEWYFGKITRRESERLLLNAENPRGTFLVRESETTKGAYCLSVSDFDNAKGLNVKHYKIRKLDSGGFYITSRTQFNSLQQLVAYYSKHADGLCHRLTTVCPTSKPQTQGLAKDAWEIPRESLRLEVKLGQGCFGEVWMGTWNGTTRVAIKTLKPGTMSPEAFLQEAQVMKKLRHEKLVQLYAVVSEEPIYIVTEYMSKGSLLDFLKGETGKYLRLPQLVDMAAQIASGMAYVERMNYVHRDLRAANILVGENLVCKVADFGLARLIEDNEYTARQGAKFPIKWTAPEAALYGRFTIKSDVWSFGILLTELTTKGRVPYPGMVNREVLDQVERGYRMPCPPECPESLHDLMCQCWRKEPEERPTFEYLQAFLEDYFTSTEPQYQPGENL

Row | Compound | IC50 [1] | Ki [2]
1 | CCn1nc(/C=C/c2ccccc2)nc2c(=O)n(C)c(=O)nc1-2 | 57.2 nM (active) | –
2 | COc1cc2c(cc1Nc1nc(Nc3cccc(F)c3C(N)=O)c3cc[nH]c3n1)N(C(=O)CN(C)C)CC2 | – | > 2000 nM (inactive)
